Data: patent US20110257233A1, “BENZOISOTHIAZOLONES AS INHIBITORS OF PHOSPHOMANNOSE ISOMERASE” (Sanford-Burnham Medical Research Institute, priority 2010, published 2011)
In brackets after ≈: the same amount, converted by molar mass. Where two headings read alike, the source gives them in different places.

Columns and labels:
[1] = test system: Cryptococcus neoformans (ATCC 24067); test: Microbial in vitro assay 647000; assay type: cell-based
Protocol: The methods employed in this study were adapted from the scientific literature to maximize reliability and reproducibility. The reference standards were run as an integral part of each assay to ensure the validity of the results obtained. The assays were performed under conditions described below. The literature reference(s) for each assay are also provided as follows: Enza Di Modugno, Isabelle […]. […] Antimicrobial Agents Chemotherapy 3: 40-48; […]., Pursiano, […]. and Price, K. E. (1973) In Vitro Activity of the Tribactam GV 104326 against Gram-Positive, Gram-Negative, and Anaerobic Bacteria. Antimicrobial Agents and Chemotherapy, 38: 2362-2368, 1994; Enza Di Modugno, Isabelle […]. […] Antimicrobial Agents Chemotherapy 3: 40-48; and […]., Pursiano, […]. and Price, K. E. (1973) In vitro antibacterial activity of SM-7338, a carbapenem antibiotic with stability to dehydropeptidase I Antimicrobial Agents, Chemotherapy, 33 #2:215-222, 1989. […] Incubation Time/Temp: 2 days @37° C.; […] Time of Assessment: 2 days; Quantitation Method: Turbidity Measurement

[2] = test system: Candida albicans (ATCC 10231); test: Microbial in vitro assay 640000; assay type: cell-based
Protocol: The methods employed in this study were adapted from the scientific literature to maximize reliability and reproducibility. The reference standards were run as an integral part of each assay to ensure the validity of the results obtained. The assays were performed under conditions described below. The literature reference(s) for each assay are also provided as follows: Enza Di Modugno, Isabelle […]. […] Antimicrobial Agents Chemotherapy 3: 40-48; […]., Pursiano, […]. and Price, K. E. (1973) In Vitro Activity of the Tribactam GV 104326 against Gram-Positive, Gram-Negative, and Anaerobic Bacteria. Antimicrobial Agents and Chemotherapy, 38: 2362-2368, 1994; Enza Di Modugno, Isabelle […]. […] Antimicrobial Agents Chemotherapy 3: 40-48; and […]., Pursiano, […]. and Price, K. E. (1973) In vitro antibacterial activity of SM-7338, a carbapenem antibiotic with stability to dehydropeptidase I Antimicrobial Agents, Chemotherapy, 33 #2:215-222, 1989. 640000 Candida albicans (ATCC 10231); Culture Medium: Fluid Sabouraud Medium; […] Incubation Time/Temp: 20 hours @ 37° C.; […] Quantitation Method: Turbidity Measurement.

[3] = biological target: T1, phosphomannose isomerase (PMI) (Homo sapiens, UniProt P34949); test: PMI enzyme inhibition assay; assay type: biochemical
T1 sequence (P34949 1-423): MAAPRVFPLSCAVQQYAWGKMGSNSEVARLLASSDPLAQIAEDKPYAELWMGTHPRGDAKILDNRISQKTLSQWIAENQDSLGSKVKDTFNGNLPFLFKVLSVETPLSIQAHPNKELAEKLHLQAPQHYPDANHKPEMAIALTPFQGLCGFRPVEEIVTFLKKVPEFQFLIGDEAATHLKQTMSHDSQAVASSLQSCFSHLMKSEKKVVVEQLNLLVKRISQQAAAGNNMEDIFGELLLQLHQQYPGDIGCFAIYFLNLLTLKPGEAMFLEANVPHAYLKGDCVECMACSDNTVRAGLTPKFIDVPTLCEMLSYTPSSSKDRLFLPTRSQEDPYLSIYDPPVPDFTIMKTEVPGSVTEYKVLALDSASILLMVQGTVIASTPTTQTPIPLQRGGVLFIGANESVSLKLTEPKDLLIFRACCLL

[4] = biological target: T2, phosphomannomutase 2 (PMM) (Homo sapiens, UniProt O15305); test: PMM enzyme inhibition assay; assay type: biochemical; settings: for IC50: mean of at least three determinations
T2 sequence (O15305 1-246): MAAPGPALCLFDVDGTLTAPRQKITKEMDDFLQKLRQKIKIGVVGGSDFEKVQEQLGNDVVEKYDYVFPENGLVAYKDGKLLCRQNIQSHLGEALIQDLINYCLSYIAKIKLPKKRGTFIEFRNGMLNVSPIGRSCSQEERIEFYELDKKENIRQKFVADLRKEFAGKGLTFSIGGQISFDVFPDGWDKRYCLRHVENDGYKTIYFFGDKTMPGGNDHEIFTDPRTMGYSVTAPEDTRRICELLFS

[5] = test system: protein glycosylation (mannose incorporated in proteins); test: Cellular assay: 3H-mannose incorporated in proteins vs glycolysis; assay type: cell-based
Protocol: A cellular assay was developed and utilized to provide proof-of-concept for the potential of the optimized PMI inhibitors as CDG therapeutics. […] Briefly. cells were preincubated with inhibitors and labeled with 3H-Mannose and 35S-Met/Cys. After washing and lysis, 3H- and 35S amounts were determined in the proteins.

Plasma stability, mouse = assay type: in vitro ADME
Text: (§1) ADME (absorption, distribution, metabolism, elimination) provides an efficient means of discovering potential issues with respect to bioavailability and the potential for in vivo efficiency. The microsomal stability assay measures a compound's potential to be metabolized by the liver and can also identify metabolic liabilities. The plasma stability assay gives essential information on whether a compound will be degraded in plasma. Finally, the Parallel Artificial Membrane Permeability Assay (PAMPA) measures compound diffusion rates through an artificial membrane to give valuable information on a compounds potential for intestinal absorption and tissue and cell permeability. [table]

[6] = Microsomal stability, human; assay type: in vitro ADME; settings: human liver microsomes
Text: as §1

[7] = Microsomal stability, mouse; assay type: in vitro ADME; settings: mouse liver microsomes
Text: as §1

Plasma stability, human = assay type: in vitro ADME
Text: as §1

[8] = Parallel Artificial Membrane Permeability Assay (PAMPA); assay type: in vitro ADME; settings: diffusion through a lipid membrane
Text: as §1

[9] = test system: Pseudomonas aeruginosa (ATCC 27853); test: Microbial in vitro assay 614030; assay type: cell-based; settings: reference standard run with the assay
Protocol: The methods employed in this study were adapted from the scientific literature to maximize reliability and reproducibility. The reference standards were run as an integral part of each assay to ensure the validity of the results obtained. The assays were performed under conditions described below. The literature reference(s) for each assay are also provided as follows: Enza Di Modugno, Isabelle […]. […] Antimicrobial Agents Chemotherapy 3: 40-48; […]., Pursiano, […]. and Price, K. E. (1973) In Vitro Activity of the Tribactam GV 104326 against Gram-Positive, Gram-Negative, and Anaerobic Bacteria. Antimicrobial Agents and Chemotherapy, 38: 2362-2368, 1994; Enza Di Modugno, Isabelle […]. […] Antimicrobial Agents Chemotherapy 3: 40-48; and […]., Pursiano, […]. and Price, K. E. (1973) In vitro antibacterial activity of SM-7338, a carbapenem antibiotic with stability to dehydropeptidase I Antimicrobial Agents, Chemotherapy, 33 #2:215-222, 1989.

[10] = reference standard run with the assay
[11] = mean of at least three determinations

C[C@@H]1[C@H](O)[C@@H](C)/C=C/C=C/C=C/C=C/C=C/C=C/C=C/[C@H](O[C@@H]2O[C@H](C)[C@@H](O)[C@H](N)[C@@H]2O)C[C@@H]2O[C@](O)(C[C@@H](O)C[C@@H](O)[C@H](O)CC[C@@H](O)C[C@@H](O)CC(=O)O[C@H]1C)C[C@H](O)[C@H]2C(=O)O [Amphotericin B Solubilized, reference compound]
CONCURRENT (reference compound data) [1, 10]: 0.1 µg/mL
CONCURRENT (reference compound data) [2, 10]: 0.1 µg/mL

O=c1c2ccccc2sn1-c1ccccc1 [Compound 1, 2-Phenyl-2-hydrobenzo[d]isothiazol-3-one]
IC50 [3]: 6.4 µM

Cc1cccc(-n2sc3ccccc3c2=O)c1 [Compound 3, 2-(3-Methylphenyl)-2-hydrobenzo[d]isothiazol-3-one]
IC50 [3, 11]: 6 µM

Cc1ccc(-n2sc3ccccc3c2=O)cc1 [Compound 4, 2-(4-Methylphenyl)-2-hydrobenzo[d]isothiazol-3-one]
IC50 [3, 11]: 3.6 µM

O=c1c2ccccc2sn1-c1cccc(C(F)(F)F)c1 [Compound 5, 2-[3(Trifluoromethyl)phenyl]-2-hydrobenzo[d]isothiazol-3-one]
IC50 [3, 11]: 3.4 µM
IC50 [4]: > 20 µM

O=c1c2ccccc2sn1-c1cccc(Cl)c1 [Compound 7, 2(3-Chlorophenyl)-2-hydrobenzo[d]isothiazol-3-one]
IC50 [3, 11]: 4.8 µM

COC(=O)c1cccc(-n2sc3ccccc3c2=O)c1 [Compound 9]
IC50 [3, 11]: 4.9 µM
IC50 [4]: > 20 µM

CCOC(=O)c1ccc(-n2sc3ccccc3c2=O)cc1 [Compound 10]
IC50 [3, 11]: 7.2 µM

CN(C)c1ccc(-n2sc3ccccc3c2=O)cc1 [Compound 12, 2-[4-(Dimethylamino)phenyl]-2-hydrobenzo[d]isothiazol-3-one]
IC50 [3, 11]: 1.9 µM
IC50 [4]: 13.3 µM
fold increase in the amount of mannose incorporated in proteins vs glycolysis ([5]; 50 μM): 1.0 fold

COc1cccc(-n2sc3ccccc3c2=O)c1 [Compound 15, 2-(3-Methoxyphenyl)-2-hydrobenzo[d]isothiazol-3-one]
IC50 [3, 11]: 3.7 µM
IC50 [4]: > 20 µM

Cc1ccccc1-n1sc2cc(F)ccc2c1=O [Compound 16, 6-Fluoro-2-o-tolylbenzo[d]isothiazol-3(2H)-one]
Plasma Stability (% remaining after 1 hour) (Plasma stability, mouse): 117.5 % remaining
Microsomal Stability (% remaining after 1 hour) [6]: 90 % remaining
Microsomal Stability (% remaining after 1 hour) [7]: 90.03 % remaining
IC50 [3, 11]: 2.9 µM
Plasma Stability (% remaining after 1 hour) (Plasma stability, human): 49.7 % remaining
fold increase in the amount of mannose incorporated in proteins vs glycolysis ([5]; 25.0 μM): 2.8 fold
fold increase in the amount of mannose incorporated in proteins vs glycolysis ([5]; 50 μM): 1.7 fold
fold increase in the amount of mannose incorporated in proteins vs glycolysis ([5]; 12.5 (head prints no unit)): 2.7 fold
Permeability [8]: Medium

Cc1ccc(C)c(-n2sc3cc(F)ccc3c2=O)c1 [Compound 17]
IC50 [3, 11]: 1.1 µM
IC50 [4]: 7.3 µM

COc1ccc(-n2sc3cc(F)ccc3c2=O)cc1 [Compound 18]
IC50 [4]: 12.9 µM

O=c1c2cc(F)ccc2sn1-c1ccccc1 [Compound 19, 5-Fluoro-2-phenylbenzo[d]isothiazol-3(2H)-one]
IC50 [3, 11]: 1.3 µM
IC50 [4]: > 20 µM
PMM inhibition ([4]; tested up to 20 μM): inactive
MIC ([1]; ATCC24067, Cryptococcus neoformans, turbidity, read-out: minimal inhibitory concentration): 1000 µg/mL (≈ 4.08 mM)
MIC ([2]; ATCC10231, Candida albicans, turbidity, read-out: minimal inhibitory concentration): 3000 µg/mL (≈ 12.2 mM)

Cc1ccc(C)c(-n2sc3ccc(F)cc3c2=O)c1 [Compound 20]
Plasma Stability (% remaining after 1 hour) (Plasma stability, mouse): 99.4 % remaining
Microsomal Stability (% remaining after 1 hour) [6]: 100 % remaining
Microsomal Stability (% remaining after 1 hour) [7]: 85.04 % remaining
IC50 [3, 11]: 1.9 µM
IC50 [4]: > 20 µM
Plasma Stability (% remaining after 1 hour) (Plasma stability, human): 96.7 % remaining
fold increase in the amount of mannose incorporated in proteins vs glycolysis ([5]; 25.0 μM): 2.3 fold
fold increase in the amount of mannose incorporated in proteins vs glycolysis ([5]; 50 μM): 3.2 fold
fold increase in the amount of mannose incorporated in proteins vs glycolysis ([5]; 12.5 (head prints no unit)): 1.9 fold
Permeability [8]: Medium

O=c1c2cc(F)ccc2sn1-c1ccc(F)cc1 [Compound 21, 5-Fluoro-2-(4-fluorophenyl)-2-hydrobenzo[d]isothiazol-3-one]
Plasma Stability (% remaining after 1 hour) (Plasma stability, mouse): 71.4 % remaining
Microsomal Stability (% remaining after 1 hour) [6]: 24.93 % remaining
Microsomal Stability (% remaining after 1 hour) [7]: 81.24 % remaining
IC50 [4]: > 20 µM
Plasma Stability (% remaining after 1 hour) (Plasma stability, human): 0.0 % remaining
Permeability [8]: High

COc1ccc(-n2sc3ccc(F)cc3c2=O)cc1 [Compound 22, 5-Fluoro-2-(4-methoxyphenyl)-2-hydrobenzo[d]isothiazol-3-one]
Plasma Stability (% remaining after 1 hour) (Plasma stability, mouse): 96.3 % remaining
Microsomal Stability (% remaining after 1 hour) [6]: 100 % remaining
Microsomal Stability (% remaining after 1 hour) [7]: 84.06 % remaining
IC50 [4]: 9.1 µM
Plasma Stability (% remaining after 1 hour) (Plasma stability, human): 107.0 % remaining
Permeability [8]: Low

O=c1c2cc(F)ccc2sn1-c1ccccc1F [Compound 23]
Plasma Stability (% remaining after 1 hour) (Plasma stability, mouse): 106.7 % remaining
Microsomal Stability (% remaining after 1 hour) [6]: 27.66 % remaining
Microsomal Stability (% remaining after 1 hour) [7]: 98.40 % remaining
IC50 [3, 11]: 4.3 µM
Plasma Stability (% remaining after 1 hour) (Plasma stability, human): 35.7 % remaining
fold increase in the amount of mannose incorporated in proteins vs glycolysis ([5]; 25.0 μM): 0.7 fold
fold increase in the amount of mannose incorporated in proteins vs glycolysis ([5]; 50 μM): 2.5 fold
fold increase in the amount of mannose incorporated in proteins vs glycolysis ([5]; 12.5 (head prints no unit)): 9.1 fold
Permeability [8]: Medium

O=c1c2cc(F)ccc2sn1-c1ccc(Cl)cc1 [Compound 24, 2-(4-Chlorophenyl)-5-fluoro-2-hydrobenzo[d]isothiazol-3-one]
IC50 [3, 11]: 1.8 µM

Gentamicin
CONCURRENT (reference compound data) [9]: 0.3 µg/mL
